Measurements from ChEMBL document CHEMBL4041487, “Drug Affinity Responsive Target Stability (DARTS) Identifies Laurifolioside as a New Clathrin Heavy Chain Modulator” (J Nat Prod, 2016).
Calls of active or inactive are those of the source. The rule behind the calls is not given here.

Legend:
[1] = biological target: Clathrin heavy chain 1 (Homo sapiens) (UniProt Q00610); test: Inhibition of clathrin heavy chain 1 in human PC3 cells assessed as suppression of transferrin internalization at 30 uM pretreated for 15 mins followed by trasnferrin conjugate addition measured after 15 mins by laser scanning confocal microscopic analysis; assay type: cell-based
[2] = biological target: Clathrin heavy chain 1 (Homo sapiens) (UniProt Q00610); test: Modulation of clathrin heavy chain 1 in human PC3 cells assessed as effect on transferrin endocytosis at 5 to 25 uM pretreated for 15 mins followed by trasnferrin conjugate addition measured after 15 mins by laser scanning confocal microscopic analysis; assay type: cell-based
[3] = biological target: Clathrin heavy chain 1 (Homo sapiens) (UniProt Q00610); test: Binding affinity to clathrin heavy chain 1 in human MCF7 cells at 20 to 40 uM measured after 2 hrs by DARTS assay; assay type: cell-based
PC-3 = test: Antiproliferative activity against human PC3 cells measured after 24 hrs by MTT assay; assay type: functional, cell-based; details: PC-3, 24 h
[4] = biological target: Clathrin heavy chain 1 (Homo sapiens) (UniProt Q00610); test: Binding affinity to clathrin heavy chain 1 in human PC3 cells at 20 to 40 uM measured after 2 hrs by DARTS assay; assay type: cell-based
MCF7 = test: Antiproliferative activity against human MCF7 cells measured after 24 hrs by MTT assay; assay type: functional, cell-based; details: MCF7, 24 h

Sequence of Clathrin heavy chain 1 (Homo sapiens) (Q00610 whole entry): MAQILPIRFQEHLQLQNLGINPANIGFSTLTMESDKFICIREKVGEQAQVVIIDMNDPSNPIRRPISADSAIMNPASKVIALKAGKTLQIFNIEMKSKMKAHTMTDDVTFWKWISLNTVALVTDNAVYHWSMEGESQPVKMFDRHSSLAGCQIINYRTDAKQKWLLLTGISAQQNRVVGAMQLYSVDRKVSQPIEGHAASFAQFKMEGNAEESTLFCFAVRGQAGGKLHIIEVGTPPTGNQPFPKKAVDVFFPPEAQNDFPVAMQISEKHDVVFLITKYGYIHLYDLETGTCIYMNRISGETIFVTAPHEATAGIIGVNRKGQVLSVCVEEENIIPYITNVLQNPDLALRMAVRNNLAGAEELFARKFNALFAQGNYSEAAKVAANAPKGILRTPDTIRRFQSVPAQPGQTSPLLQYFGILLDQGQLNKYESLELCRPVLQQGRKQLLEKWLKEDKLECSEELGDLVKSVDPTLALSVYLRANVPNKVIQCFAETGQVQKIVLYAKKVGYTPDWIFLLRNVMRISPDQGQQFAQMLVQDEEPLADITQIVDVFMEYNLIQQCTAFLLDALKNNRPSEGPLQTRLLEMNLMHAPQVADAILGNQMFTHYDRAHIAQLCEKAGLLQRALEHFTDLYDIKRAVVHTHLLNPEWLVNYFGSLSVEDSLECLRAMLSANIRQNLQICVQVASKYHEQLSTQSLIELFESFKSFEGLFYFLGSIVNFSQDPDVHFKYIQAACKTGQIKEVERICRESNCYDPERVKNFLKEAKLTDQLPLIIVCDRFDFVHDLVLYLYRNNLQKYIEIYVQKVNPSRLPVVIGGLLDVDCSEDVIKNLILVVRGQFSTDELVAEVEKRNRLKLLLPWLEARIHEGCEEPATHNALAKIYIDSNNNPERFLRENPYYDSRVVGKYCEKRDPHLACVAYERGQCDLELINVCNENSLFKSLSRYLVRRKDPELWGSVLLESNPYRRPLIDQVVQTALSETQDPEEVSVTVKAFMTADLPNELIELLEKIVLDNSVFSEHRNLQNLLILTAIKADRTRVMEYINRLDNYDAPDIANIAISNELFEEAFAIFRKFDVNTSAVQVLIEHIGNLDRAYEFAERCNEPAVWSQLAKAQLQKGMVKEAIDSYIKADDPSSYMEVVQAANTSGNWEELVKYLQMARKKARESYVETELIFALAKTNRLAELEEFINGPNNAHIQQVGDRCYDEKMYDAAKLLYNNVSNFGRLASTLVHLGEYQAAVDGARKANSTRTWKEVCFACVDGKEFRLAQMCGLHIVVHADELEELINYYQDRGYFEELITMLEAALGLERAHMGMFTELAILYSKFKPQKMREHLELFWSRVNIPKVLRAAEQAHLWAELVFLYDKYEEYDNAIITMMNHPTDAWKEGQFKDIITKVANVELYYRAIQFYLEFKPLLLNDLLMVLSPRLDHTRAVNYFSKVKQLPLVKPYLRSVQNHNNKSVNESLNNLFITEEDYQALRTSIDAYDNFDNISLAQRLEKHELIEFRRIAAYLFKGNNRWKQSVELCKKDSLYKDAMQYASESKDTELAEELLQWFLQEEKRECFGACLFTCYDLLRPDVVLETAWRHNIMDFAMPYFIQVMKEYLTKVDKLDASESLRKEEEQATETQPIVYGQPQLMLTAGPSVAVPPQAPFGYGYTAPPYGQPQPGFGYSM

SMILES	inhibition [1]	Activity [2]	Activity [3]	IC50 (PC-3) [µM]	Activity [4]	IC50 (MCF7) [µM]
O=C1N=C(NS(=O)(=O)c2cccc3ccccc23)S/C1=C/c1ccc(Br)cc1	Active	–	–	–	–	–
C/C1=C/C2=C(C(=O)[C@H](C)C2)C(=O)[C@@H](C)C[C@@H]2[C@H](CC1)[C@@]2(C)CO[C@@H]1O[C@H](CO)[C@@H](O)[C@H](O)[C@H]1O	–	Active	Active	25	Active	32
